Patent publication US6294152A, “Iron(III) complexes as contrast agents for image enhancement in magnetic resonance imaging” (The University of Toledo, priority 1999, dated 2001)
Where two headings read alike, the source gives them in different places.

Tests used:
[1] = Relaxivity in Water and Plasma; assay type: physicochemical; details: 20 MHz, 37° C; for relaxivity r1 (plasma): in plasma; for relaxivity r1 (H2O): in water
Description: Relaxivity values (mM^-1 s^-1) have been determined in water and in plasma at 20 MHz and 37° C.

mice [2] = assay: Toxicity Studies in Mice, LD50 i.v.; assay type: in vivo
Excerpt: The LD50 value of the tris(ligand) iron(III) complex of ligand IX, Fe-DIOLMAL, has been determined i.v. in mice and found to be ca. 20.0 mmol/kg bw.

mice [3] = details: metal chloride salts in aqueous solution, i.p.; cited from earlier work

**Q.** Which “relaxivity r1 (plasma)” value [1] does the source give for Cc1c([O-])c(=O)ccn1CCC(=O)O.Cc1c([O-])c(=O)ccn1CCC(=O)O.Cc1c([O-])c(=O)ccn1CCC(=O)O.[Fe+3] [Fe-BETALA] here?
**A.** 2.1 mM⁻¹ s⁻¹

**Q.** What about the “relaxivity r1 (H2O)” value [1] of the same compound?
**A.** 1.8 mM⁻¹ s⁻¹

**Q.** For Cc1c([O-])c(=O)ccn1CCO.Cc1c([O-])c(=O)ccn1CCO.Cc1c([O-])c(=O)ccn1CCO.[Fe+3] [Fe-ETOHMAL], which LD50 (mice [2]) is on record?
**A.** ca. 7.5 mmol/kg bw

**Q.** And the “relaxivity r1 (plasma)” value [1]?
**A.** 2.0 mM⁻¹ s⁻¹

**Q.** What about the “relaxivity r1 (H2O)” value [1] of the same compound?
**A.** 1.7 mM⁻¹ s⁻¹

**Q.** Which LD50 (mice [3]) does the source give for [Gd] [gadolinium] here?
**A.** 1.4 mmol/kg

**Q.** For [Mn+2] [manganese], which LD50 (mice [3]) is on record?
**A.** 1.5 mmol/kg

**Q.** With iron as the compound, how does the LD50 (mice [3]) read?
**A.** 1.6 mmol/kg
